Common to all, as to assay type: functional
Assay [1] has as its system Mus musculus. The assay can be described thus: Antidepressant activity by injecting 20 mg/kg of compound intraperitoneally and measuring the ability to prevent tetrabenazine (TBZ) induced ptosis in mice. Particulars: ip, route intraperitoneal.
Assay [2] relates to Mus musculus. Kind of assay: Analgesic activity by injecting compound subcutaneously and measuring the inhibition of phenyl-p-benzoquinone-induced writhing (PQW) in mice. Particulars: sc. A general note: Writhing tests count abdominal constrictions after an irritant is injected.
For assay [3], the system named is Mus musculus. The assay can be described thus: Antidepressant activity by injecting compound intraperitoneally and measuring the ability to prevent tetrabenazine (TBZ) induced ptosis in mice. Conditions: ip.
The species named for assay [4] is Mus musculus. The assay can be described thus: Antidepressant activity by injecting compound perorally and measuring the ability to prevent tetrabenazine (TBZ) induced ptosis in mice.

Usually inhibition in vivo stands for the drop in the measured response relative to a control, in per cent. Read a high inhibition in vivo as a response far below the control. Compound `CN1CCC2(CC1)CN1c3ccccc3N=Cc3cccc2c31` gave an inhibition in vivo at 20 mg/kg with Mus musculus [1] of 20%.
By ED50 is commonly meant the dose at which the effect has come halfway, by size or by number of responders. A low value points to an effect at a small dose. In the assay on Mus musculus [2], `CC1=Nc2ccccc2N2CC3(CCN(C)CC3)c3cccc1c32.Cl.Cl` had an ED50 of 4.7 mg/kg. Also, in the assay with Mus musculus [1], the inhibition in vivo at 20 mg/kg was 50%.
In the assay with Mus musculus [2], `CC1Nc2ccccc2N2CC3(CCN(C)CC3)c3cccc1c32.Cl.Cl` (stereo not drawn) registered an ED50 of 9.73 mg/kg. The same compound had an inhibition in vivo at 20 mg/kg with Mus musculus [1] of 20%.
`CN1CCC2(CC1)CN(c1ccccc1N)c1ccccc12`: the median effective dose (ED50) in the assay on Mus musculus [2] turned out to be 11.6 mg/kg; with Mus musculus [3], 4 mg/kg; in the assay listed under Mus musculus [4] it was 1.9 mg/kg.

The record behind these values is ChEMBL document CHEMBL1122601, “Novel tetracyclic spiropiperidines. 4. Synthesis and pharmacological evaluation of spiro- and 6,7-dihydrospiro[benzo[b]pyrrolo[3,2,1-jk][1,4]benzodiazepine-2 (1H),4'-piperidine]s” (1984).
